{"source": "patent US20070219223A1", "about": "“Compositions and methods for treating respiratory disorders” (Endacea, Inc., priority 2006, published 2007)", "key": {"[1]": {"test_system": "allergic rabbits", "experiment": "Adenosine provocation test after aerosol L-97-1 in allergic rabbits (PC50 of adenosine, lung compliance)", "format": "in vivo, rabbit", "details": "controls without L-97-1, aerosolized adenosine, n=9"}, "[2]": {"test_system": "allergic rabbits", "details": "baseline BHR, aerosolized histamine, n=5", "method": "All animals were anesthetized and intubated. All treatments were administered via an endotracheal tube with an ultrasonic nebulizer that produces aerosol droplets (80% are less than 5 μm). Dynamic compliance (Cdyn) was calculated from tidal volume and the difference in transpulmonary pressure (PTP) at zero flow (V). Total lung resistance (RT) was calculated as the ratio of PTP and V at […] lung volumes; these measurements are made automatically with the Buxco Respiratory Analyzer."}, "[3]": {"details": "cited from earlier work"}}, "note": "Structures can show the parent of a compound that is named as a salt.", "data": [{"smiles": "Nc1ncnc2c1ncn2[C@@H]1O[C@H](CO)[C@@H](O)[C@H]1O", "note": "[adenosine]", "values": [{"measurement": "PC50 for adenosine (concentration of adenosine to reduce lung compliance by 50%)", "setting": "[1]", "result": "3.24 ± 1.79", "unit": "mg/mL"}]}, {"smiles": "NCCc1c[nH]cn1", "note": "[histamine]", "values": [{"measurement": "PC50 for histamine (concentration of histamine to reduce lung compliance by 50%)", "setting": "[2]", "result": "0.77 ± 0.28", "unit": "mg/mL"}]}, {"smiles": "OCc1cc(C(O)CNCCCCCCOCCCCc2ccccc2)ccc1O", "note": "(stereo not drawn) [salmeterol xinafoate, salmeterol 1-hydroxy-2-napthoic acid salt]", "values": [{"measurement": "Solubility in water", "setting": "[3]", "result": "sparingly soluble in water"}]}]}
